This note sets out measurements from patent US8629167B2, “Selective androgen receptor modulators” (Radius Health, Inc., priority 2008, dated 2014).

Structures are written as SMILES.

The target of one experiment is androgen receptor (Rattus norvegicus (Rat), UniProt P15207). Put plainly: androgen receptor binding assay (fluorescence polarization, AR-Fluormone complex).
Chain of androgen receptor (P15207 whole entry, looked up): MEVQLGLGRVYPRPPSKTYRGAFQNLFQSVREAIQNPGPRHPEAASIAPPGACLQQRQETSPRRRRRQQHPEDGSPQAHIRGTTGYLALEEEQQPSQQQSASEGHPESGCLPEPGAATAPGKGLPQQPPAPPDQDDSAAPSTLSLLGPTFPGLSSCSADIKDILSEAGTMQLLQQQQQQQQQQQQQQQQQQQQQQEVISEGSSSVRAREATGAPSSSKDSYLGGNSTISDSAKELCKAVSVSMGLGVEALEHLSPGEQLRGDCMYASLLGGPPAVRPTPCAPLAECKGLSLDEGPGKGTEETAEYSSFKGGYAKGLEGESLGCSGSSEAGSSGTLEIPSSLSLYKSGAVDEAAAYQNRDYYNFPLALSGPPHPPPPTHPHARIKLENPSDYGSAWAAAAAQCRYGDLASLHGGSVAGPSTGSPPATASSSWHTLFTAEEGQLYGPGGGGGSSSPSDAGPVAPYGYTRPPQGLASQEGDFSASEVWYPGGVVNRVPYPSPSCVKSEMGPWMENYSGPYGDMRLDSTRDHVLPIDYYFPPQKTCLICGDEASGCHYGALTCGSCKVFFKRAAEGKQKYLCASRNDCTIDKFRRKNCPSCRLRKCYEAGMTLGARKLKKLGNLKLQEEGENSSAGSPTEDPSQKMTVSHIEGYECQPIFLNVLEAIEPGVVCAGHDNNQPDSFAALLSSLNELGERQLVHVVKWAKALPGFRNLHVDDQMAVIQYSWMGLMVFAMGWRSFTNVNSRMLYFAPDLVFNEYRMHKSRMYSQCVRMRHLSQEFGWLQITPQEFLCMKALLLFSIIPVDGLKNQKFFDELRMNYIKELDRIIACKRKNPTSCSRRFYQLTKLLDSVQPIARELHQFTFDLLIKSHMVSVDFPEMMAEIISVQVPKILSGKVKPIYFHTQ
Settings: not given
The procedure:
The assay was performed as specified by the manufacturer (Invitrogen, Madison, Wis.). Briefly, 1 μl of 10 mM compound was added to 500 μl of AR screening buffer in a 1.5 ml eppendorf tube to make a 2×10^−5 M stock. 10-fold serial dilutions of the test compounds were prepared ranging in concentration from 10^−5M to 10^−12 M. Each dilution was added in triplicate to a black 384-microtiter plate. The test compounds will be diluted 2-fold in the final reaction. 2×AR-Fluormone™ complex was prepared with 2 nM Flourmone AL Green™ and 30 nM AR. 25 μl of 2× complex was aliquoted to each reaction well, such that the final reaction volume was 50 μl per well. Plate was sealed with a foil cover and incubated in the dark at room temperature for 4 h. Polarization values for each well were measured. The polarization values were plotted against the concentration of the test compound. […] As a control, a competition curve for R1881 (methyltrienolone) was performed for each assay. Curve Fitting was performed using GraphPad Prism® software from GraphPad™ Software Inc. Binding data are reported as a single determination if the experiment was run once only and as the average of experiments if the binding experiment was performed two or more times with that compound.
Were multiple data points have been taken, the value reported is the average of the multiple determinations.
(In fluorescence polarisation assays a small probe gives low polarisation when free and higher when bound to something large.)
What is called IC50 is the concentration that inhibits the measured activity by half. Turning to `CC(=O)Oc1ccc(-c2nnc([C@H](Nc3ccc(C#N)c(Cl)c3C)[C@H](C)OC(C)=O)o2)cc1` [Example 73, 4-(5-((1R,2S)-2-Acetoxy-1-(3-chloro-4-cyano-2-methylphenylamino)propyl)-1,3,4-oxadiazol-2-yl)phenyl acetate], the concentration for half-maximal inhibition (IC50) came to 30 nM. On the same count and under the same terms, next, `Cc1c(N[C@@H](c2nnc(-c3ccc4[nH]ccc4c3)o2)[C@H](C)O)ccc(C#N)c1Cl` [Example 98, 4-((1R,2S)-1-(5-(1H-Indol-5-yl)-1,3,4-oxadiazol-2-yl)-2-hydroxypropylamino)-2-chloro-3-methylbenzonitrile]: 80 nM. On the same count and under the same terms, next, `CCC(=O)O[C@@H](C)[C@@H](Nc1ccc(C#N)c(Cl)c1C)c1nnc(-c2ccc(C#N)cc2)o1` [Example 86, (1R,2S)-1-(3-Chloro-4-cyano-2-methylphenylamino)-1-(5-(4-cyanophenyl)-1,3,4-oxadiazol-2-yl)propan-2-yl propionate]: 120 nM; `CCC(=O)O[C@@H](C)[C@@H](Nc1ccc(C#N)c(Cl)c1C)c1nnc(-c2ccccc2)o1` [Example 84, (1R,2S)-1-(3-Chloro-4-cyano-2-methylphenylamino)-1-(5-phenyl-1,3,4-oxadiazol-2-yl)propan-2-yl propionate]: 25 nM.

Consider `C[C@H](O)[C@@H](Nc1ccc(C#N)c2scc(Cl)c12)c1nnc(-c2ccc(C#N)cc2)o1` [Example 95, 3-Chloro-4-((1R,2S)-1-(5-(4-cyanophenyl)-1,3,4-oxadiazol-2-yl)-2-hydroxypropylamino)benzo[b]thiophene-7-carbonitrile], for which the IC50 is 1 nM. On the same count and under the same terms, next, `Cc1c(N[C@@H](c2nnc(-c3ccccc3)o2)[C@H](C)OS(N)(=O)=O)ccc(C#N)c1Cl` [Example 90, (1R,2S)-1-(3-Chloro-4-cyano-2-methylphenylamino)-1-(5-phenyl-1,3,4-oxadiazol-2-yl)propan-2-yl sulfamate]: 20 nM; `[2H]c1ccc(-c2nnc([C@H](Nc3ccc(C#N)c(Cl)c3C)[C@H](C)O)o2)cc1` [Example 97, 2-Chloro-4-((1R,2S)-1-(5-(4-deuterophenyl)-1,3,4-oxadiazol-2-yl)-2-hydroxypropylamino)-3-methylbenzonitrile]: 18 nM; `Cc1c(N[C@@H](c2nnc(-c3ccc(OS(N)(=O)=O)cc3)o2)[C@H](C)O)ccc(C#N)c1Cl` [Example 93, 4-(5-((1R,2S)-1-(3-Chloro-4-cyano-2-methylphenylamino)-2-hydroxypropyl)-1,3,4-oxadiazol-2-yl)phenyl sulfamate]: 25 nM. Still for that read-out and setting: with `CC(=O)O[C@@H](C)[C@@H](Nc1ccc(C#N)c(Cl)c1C)c1nnc(-c2ccc(C#N)cc2)o1` [Example 88, (1R,2S)-1-(3-Chloro-4-cyano-2-methylphenylamino)-1-(5-(4-cyanophenyl)-1,3,4-oxadiazol-2-yl)propan-2-yl acetate] the figure was 110 nM; with `CCCC(=O)O[C@@H](C)[C@@H](Nc1ccc(C#N)c(Cl)c1C)c1nnc(-c2ccc(C#N)cc2)o1` [Example 85, (1R,2S)-1-(3-Chloro-4-cyano-2-methylphenylamino)-1-(5-(4-cyanophenyl)-1,3,4-oxadiazol-2-yl)propan-2-yl butyrate], 10 nM; with `CC(=O)O[C@@H](C)[C@@H](Nc1ccc(C#N)c(Cl)c1C)c1nnc(-c2ccccc2)o1` [Example 76, (1R,2S)-1-(3-chloro-4-cyano-2-methylphenylamino)-1-(5-phenyl-1,3,4-oxadiazol-2-yl)propan-2-yl acetate], 15 nM.

The experiment is the same for the next values; noted with them: single determination or average of multiple determinations; read-out: Binding IC50 (nM), Compound AR-Binding Affinity.
Consider `Cc1c(N[C@H](c2ccc(-c3nnco3)cc2)[C@@H](C)OS(N)(=O)=O)ccc(C#N)c1Cl` [Example 94, (1R,2R)-1-(3-Chloro-4-cyano-2-methylphenylamino)-1-(4-(1,3,4-oxadiazol-2-yl)phenyl sulfamate)propan-2-yl sulfamate], for which the IC50 was more than 1000 nM. On to `C[C@H](O)[C@@H](Nc1ccc(C#N)c(Cl)c1)c1nnc(-c2ccc(S(C)(=O)=O)cc2)o1` [Example 48, 2-Chloro-4-((1R,2S)-2-hydroxy-1-(5-(4-(methylsulfonyl)phenyl)-1,3,4-oxadiazol-2-yl)propylamino)benzonitrile], for which the IC50 is more than 1000 nM. For the compound `Cc1c(N[C@@H](c2nnc(-c3ccc(NC(=O)c4ccccc4)cc3)o2)[C@H](C)O)ccc(C#N)c1Cl` [Example 77, N-(4-(5-((1R,2S)-1-(3-Chloro-4-cyano-2-methylphenylamino)-2-hydroxypropyl)-1,3,4-oxadiazol-2-yl)phenyl)benzamide], the half-maximal inhibitory concentration (IC50) was determined as 1000 nM.

The test system of the next experiment is young, orchidectomized rats. Briefly: Rat Herschberger assay (in vivo androgen and anabolic activity). Conditions: organ weight, 10 mg/kg (po), treated for 4 days. The source says: The following is a typical procedure of the in vivo evaluation of the selective androgens of this invention. In particular, this assay looks primarily at the ability of the selective androgens of this invention to increase muscle size in an immature, castrated rat. In addition, androgenic effects are looked at primarily by weighing the prostate and seminal vesicles. Selective compounds will show a greater increase in the levator ani relative to the prostate and seminal vesicles when compared to testosterone treated, castrated animals or to intact animals that have not been treated. Immature Sprague Dawley male rats were obtained Charles River Laboratories (Stoneridge, N.Y.). All animals were maintained in a temperature and humidity controlled room with a 12 hr light: 12 hr dark cycle, with ad lib access to food (TD 291615, Teklad, Madison, Wis.) and water. Rats were anesthetized and orchidectomized (GDX) or sham surgery (SHAM) was performed. After a 7-day recovery period, the animals were randomized according to weight and assigned to treatment groups (n=5), SHAM, OVX+vehicle, OVX+Cpd treated. Testosterone propionate (TP 1 mg/kg in 5% DMSO/95% corn oil) was administered by once daily subcutaneous injections, while the compounds of the invention are dosed in vehicle (typically 20% cyclodextrin or 0.5% carboxymethylcellulose) was administered by once daily oral gavage. The rats were then dosed once daily for 4 days. All animals were euthanized via carbon dioxide inhalation 24 hs after the last dose. The prostate, seminal vesicle and levator ani and bulba cavernous (LABC) tissues were removed, weighed and recorded. Body weights were recorded for each animal at baseline and at sacrifice.
Prostate, seminal vesicle and levator ani bulbus cavernosus (LABC) are all represented as % relative to sham. After sacrifice, organ weights of young, orchidectomized rats treated with compound for 4 days are compared to sham operated animals.
In the case of `Cc1c(N[C@@H](c2nnc(-c3ccccc3)o2)[C@@H](C)O)ccc(C#N)c1Cl` [Example 3, 2-chloro-4-((1R,2R)-2-hydroxy-1-(5-phenyl-1,3,4-oxadiazol-2-yl)propylamino)-3-methylbenzonitrile], the “LABC (levator ani bulbus cavernosus), % relative to sham” value stood at 99%; the “Prostate, % relative to sham” value was 43%; the “Seminal vesicle, % relative to sham” value is 37%. For `Cc1c(N[C@@H](c2nnc(-c3ccccc3)o2)[C@H](C)O)ccc(C#N)c1Cl` [Example 1, 2-chloro-4-((1R,2S)-2-hydroxy-1-(5-phenyl-1,3,4-oxadiazol-2-yl)propylamino)-3-methylbenzonitrile] the same measures were 85%, 46% and 69%.
